Reference: the NIST ThermoML archive (doi:10.1021/je700297c)
± gives the expanded uncertainty stated by the source.

Experiment: activity coefficient (dimensionless); of the first substance listed, at infinite dilution; xn = mol fraction of the nth substance listed
Conditions: Liquid, Chromatography, x1 = 0

Row | SMILES | activity coefficient (298 K) | activity coefficient (323 K) | activity coefficient (303 K) | activity coefficient (333 K)
1 | C=CCCCCCC [oct-1-ene] + CCCCn1cc[n+](C)c1.F[B-](F)(F)F | 59.1 ± 4 | 48.3 ± 3.3 |  | 
2 | C=CCCCCCC [oct-1-ene] + C[n+]1ccn(CCCC#N)c1.N#CN=C=[N-] |  | 136 ± 9.3 | 142 ± 9.8 | 
3 | C=CCCCCCC [oct-1-ene] + C[n+]1ccn(CCCC#N)c1.O=S(=O)([N-]S(=O)(=O)C(F)(F)F)C(F)(F)F |  | 106 ± 7.2 | 119 ± 8.1 | 
4 | CCCCCCCC [octane] + CCCCCCCCCCCCCCCC(=O)[O-].CCCCn1cc[n+](C)c1 |  |  |  | 1.6 ± 0.1
5 | CCCCCCCC [octane] + CCCCCCCCCCCCCCCCCC(=O)[O-].CCCCn1cc[n+](C)c1 |  | 2.1 ± 0.2 |  | 1.6 ± 0.1
6 | CCCCCCCC [octane] + CCCCCCCC[n+]1ccn(C)c1.F[B-](F)(F)F | 16.1 ± 1.1 | 11 ± 0.8 |  | 
7 | CCCCCCCC [octane] + CCCC[n+]1ccn(C)c1.O=S(=O)([N-]S(=O)(=O)C(F)(F)F)C(F)(F)F |  | 23.4 ± 1.6 |  | 
8 | CCCCCCCC [octane] + CCCCn1cc[n+](C)c1.F[B-](F)(F)F | 117 ± 8 | 95.5 ± 6.5 |  | 
9 | CCCCCCCC [octane] + C[n+]1ccn(CCCC#N)c1.N#CN=C=[N-] |  | 204 ± 14 | 264 ± 18 | 
10 | CCCCCCCC [octane] + C[n+]1ccn(CCCC#N)c1.O=S(=O)([N-]S(=O)(=O)C(F)(F)F)C(F)(F)F |  | 159 ± 11 | 191 ± 13 | 
11 | C1CCOC1 [tetrahydrofuran] + CCCCCCCCCCCCCCCC(=O)[O-].CCCCn1cc[n+](C)c1 |  |  |  | 0.6 ± 0.1
12 | C1CCOC1 [tetrahydrofuran] + CCCCCCCCCCCCCCCCCC(=O)[O-].CCCCn1cc[n+](C)c1 |  | 0.7 ± 0.1 |  | 0.6 ± 0.1
13 | C1CCOC1 [tetrahydrofuran] + CCCCCCCC[n+]1ccn(C)c1.F[B-](F)(F)F | 0.7 ± 0.1 | 0.6 ± 0.1 |  | 
14 | C1CCOC1 [tetrahydrofuran] + CCCC[n+]1ccn(C)c1.O=S(=O)([N-]S(=O)(=O)C(F)(F)F)C(F)(F)F |  | 0.4 ± 0.1 |  | 
15 | C1CCOC1 [tetrahydrofuran] + CCCCn1cc[n+](C)c1.F[B-](F)(F)F | 1.4 ± 0.1 | 1.4 ± 0.1 |  | 
16 | C1CCOC1 [tetrahydrofuran] + C[n+]1ccn(CCCC#N)c1.N#CN=C=[N-] |  | 1.5 ± 0.1 | 1.6 ± 0.1 | 
17 | C1CCOC1 [tetrahydrofuran] + C[n+]1ccn(CCCC#N)c1.O=S(=O)([N-]S(=O)(=O)C(F)(F)F)C(F)(F)F |  | 1.2 ± 0.1 | 1.3 ± 0.1 | 

Row | SMILES | activity coefficient (298 K) | activity coefficient (323 K) | activity coefficient (303 K) | activity coefficient (333 K)
18 | c1ccsc1 [thiophene] + CCCCCCCCCCCCCCCC(=O)[O-].CCCCn1cc[n+](C)c1 |  |  |  | 0.9 ± 0.1
19 | c1ccsc1 [thiophene] + CCCCCCCCCCCCCCCCCC(=O)[O-].CCCCn1cc[n+](C)c1 |  | 0.8 ± 0.1 |  | 0.8 ± 0.1
20 | c1ccsc1 [thiophene] + CCCCCCCC[n+]1ccn(C)c1.F[B-](F)(F)F | 0.9 ± 0.1 | 0.8 ± 0.1 |  | 
21 | c1ccsc1 [thiophene] + CCCC[n+]1ccn(C)c1.O=S(=O)([N-]S(=O)(=O)C(F)(F)F)C(F)(F)F |  | 0.7 ± 0.1 |  | 
22 | c1ccsc1 [thiophene] + CCCCn1cc[n+](C)c1.F[B-](F)(F)F | 1.7 ± 0.1 | 1.5 ± 0.1 |  | 
23 | c1ccsc1 [thiophene] + C[n+]1ccn(CCCC#N)c1.N#CN=C=[N-] |  | 1.6 ± 0.1 | 1.7 ± 0.1 | 
24 | c1ccsc1 [thiophene] + C[n+]1ccn(CCCC#N)c1.O=S(=O)([N-]S(=O)(=O)C(F)(F)F)C(F)(F)F |  | 1.4 ± 0.1 | 1.5 ± 0.1 | 
25 | Cc1ccccc1 [toluene] + CCCCCCCCCCCCCCCC(=O)[O-].CCCCn1cc[n+](C)c1 |  |  |  | 0.8 ± 0.1
26 | Cc1ccccc1 [toluene] + CCCCCCCCCCCCCCCCCC(=O)[O-].CCCCn1cc[n+](C)c1 |  | 0.8 ± 0.1 |  | 0.8 ± 0.1
27 | Cc1ccccc1 [toluene] + CCCCCCCC[n+]1ccn(C)c1.F[B-](F)(F)F | 1 ± 0.1 | 0.9 ± 0.1 |  | 
28 | Cc1ccccc1 [toluene] + CCCC[n+]1ccn(C)c1.O=S(=O)([N-]S(=O)(=O)C(F)(F)F)C(F)(F)F |  | 1.2 ± 0.1 |  | 
29 | Cc1ccccc1 [toluene] + CCCCn1cc[n+](C)c1.F[B-](F)(F)F | 2.5 ± 0.2 | 2.4 ± 0.2 |  | 
30 | Cc1ccccc1 [toluene] + C[n+]1ccn(CCCC#N)c1.N#CN=C=[N-] |  | 4 ± 0.3 | 4.3 ± 0.3 | 
31 | Cc1ccccc1 [toluene] + C[n+]1ccn(CCCC#N)c1.O=S(=O)([N-]S(=O)(=O)C(F)(F)F)C(F)(F)F |  | 3.1 ± 0.2 | 3.3 ± 0.2 | 
32 | O [water] + CCCC[n+]1ccn(C)c1.O=S(=O)([N-]S(=O)(=O)C(F)(F)F)C(F)(F)F |  | 2.6 ± 0.2 |  | 
33 | O [water] + C[n+]1ccn(CCCC#N)c1.O=S(=O)([N-]S(=O)(=O)C(F)(F)F)C(F)(F)F |  | 1.8 ± 0.1 |  | 
